Results as given in patent US5079257A, “Indoloquinone compounds” (priority 1986, dated 1992).
In brackets after ≈: the same amount, converted by molar mass. Where two headings read alike, the source gives them in different places.

Legend:
L1210 cells = assay: L1210 activity in clonogenic assay (TNO Rijswijk); type: cell-based; conditions: Mus musculus, L1210, 192 h, read-out: ID-50 L1210, clonogenic assay
Source text: The indoloquinones II (formula II) have been tested in respect of their cytotoxic activity against L1210 cells and R-1 cells (Rhabdomyosarcoma Cells) in a bioliquid assay at the department of oncology of the Free University of Amsterdam (Table I). In addition to this seven compounds (E.O. 1, E.O. 2, E.O. 4, E.O. 7, E.O. 9, E.O. 16 and E.O. 17) have been tested on L1210 activity in a clonogenic assay at TNO, Rijswijk. Further, the lowest active doses of the compounds E.O. 1, E.O. 2, E.O. 4 and E.O. 9 have been determined at TNO Rijswijk, according to the method described by Lamberts et al. [Oncology, 40, 301 (1983)]. (Table II). Eight indoloquinones (E.O. 1, E.O. 2, E.O. 4, E.O. 4A, E.O. 8, E.O. 9, E.O. 33 and E.O. 35) have been tested in a panel of five human tumour lines (TNO Rijswijk; Table III). From the latter group three indoloquinones (E.O. 1, E.O. 4 and E.O. 9) have been selected for a cytotoxicity study, involving five slowly growing human tumour lines (University of Freiburg; Table IV).
The L1210 clonogenic assay used was an improved variant of the method described earlier by H. MARTIN et al. [Cancer Chemother., Rep., 51 451 (1967)] and L. M. van Putten et al. [Cancer Treat. Rep., 60, 373 (1976)] for the growth into colonies of L1210 cells in a soft agar medium. From a suspension culture ~100 L1210 Cells (0.1 ml) were plated into […] culture dishes (Falcon), containing 1 ml of soft agar growth medium and the compound to be tested in appropriate concentrations. The soft agar growth medium consisted of Dulbecco medium supplemented with 15.8% horse serum, 60 μmol 2-mercapto-ethanol, 20 mg/ml L-asparagine and 0.3% bacto agar (Difco).
The culture dishes were incubated at 37° C. in an atmosphere of 1% CO2 in humidified air for 8 days. After this period of continuous drug exposure, colonies were counted and dose-effect curves were made.

Colon 2 tumour line = assay: Colony inhibition in vitro, continuous drug exposure (Freiburg); type: cell-based; conditions: Homo sapiens, read-out: colony formation treated/control (T/C), Colon 2; for activity at 1 µg/mL: 1.0 μg/ml
Procedure: (§1) Three indoloquinones were tested at the University of Freiburg with respect to their in vitro inhibition of colony formation of the following five human tumour cell lines: lung-NSCLC, breast, renal and two colon lines.

Colon 1 tumour line = assay: as above; type: cell-based; conditions: Homo sapiens, read-out: colony formation treated/control (T/C), Colon 1; for activity at 1 µg/mL: 1.0 μg/ml
Procedure: as §1

Renal tumour line = assay: as above; type: cell-based; conditions: Homo sapiens, read-out: colony formation treated/control (T/C), Renal; for activity at 1 µg/mL: 1.0 μg/ml
Procedure: as §1

[1] = system: Mammary (breast) tumour line; assay: as above; type: cell-based; conditions: Homo sapiens, read-out: colony formation treated/control (T/C), Mammary; for activity at 1 µg/mL: 1.0 μg/ml
Procedure: as §1

[2] = Half-wave reduction potentials / polarography (University of Utrecht); type: physicochemical
Summary of the method: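 Polarographic half-wave potentials (E1/2) measured; only the first, quinone, reduction potential is reported.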

MCF7 breast cancer cells = assay: In vitro panel of human tumour lines (TNO): MCF-7; type: cell-based; conditions: about 72 hours; further: key: -: no inhibition of cell growth; +: total cell-kill
Summary of the method: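 Cells in Dulbecco's medium with 10% foetal calf serum were seeded 48 h, then exposed continuously to increasing compound concentrations (final ethanol <1%) for about 72 h at 37° in 10% CO2. Crystal violet staining after fixation; inhibiting concentration estimated qualitatively.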

IgR37 cells melanoma = assay: In vitro panel of human tumour lines (TNO): IgR-37; type: cell-based; conditions: about 72 hours; further: key: -: no inhibition of cell growth; +: total cell-kill
Summary of the method: (§2)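 Cells (5×10^4/ml, Dulbecco's medium + 10% FCS) grafted 48 h, then continuously exposed to compound (Hanks'/ethanol, final ethanol <1%) for about 72 h at 37°C, 10% CO2. Crystal violet fixation/staining; inhibiting concentration estimated qualitatively over increasing doses.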

[3] = system: A 204 cells; rhabdomyosarcoma; assay: In vitro panel of human tumour lines (TNO): A 204; type: cell-based; conditions: about 72 hours; further: key: -: no inhibition of cell growth; +: total cell-kill
Summary of the method: as §2

lung-NSCLC tumour line = assay: Colony inhibition in vitro, continuous drug exposure (Freiburg); type: cell-based, human; conditions: for activity at 1 µg/mL: 1.0 μg/ml
Procedure: as §1

[4] = 8 days continuous exposure, TNO Rijswijk
[5] = Homo sapiens, 0.01 μg/ml, read-out: colony formation treated/control (T/C), Lung
[6] = Homo sapiens, 0.1 μg/ml, read-out: colony formation treated/control (T/C), Lung
[7] = Homo sapiens, read-out: colony formation treated/control (T/C), Lung

Compound | IC50 (L1210 cells; [4]) | activity at 0.01 µg/mL (Colon 2 tumour line; 0.01 μg/ml) | activity at 0.1 µg/mL (Colon 2 tumour line; 0.1 μg/ml) | activity at 1 µg/mL (Colon 2 tumour line) | activity at 0.01 µg/mL (Colon 1 tumour line; 0.01 μg/ml) | activity at 0.1 µg/mL (Colon 1 tumour line; 0.1 μg/ml) | activity at 1 µg/mL (Colon 1 tumour line) | activity at 0.1 µg/mL (Renal tumour line; 0.1 μg/ml) | in vitro activity score, MCF-7 (MCF7 breast cancer cells; 0.01 μg/ml) | in vitro activity score, MCF-7 (MCF7 breast cancer cells; 0.1 μg/ml) | in vitro activity score, MCF-7 (MCF7 breast cancer cells; 1.0 μg/ml) | in vitro activity score, MCF-7 (MCF7 breast cancer cells; 10 μg/ml) | in vitro activity score, IgR-37 (IgR37 cells melanoma; 0.01 μg/ml) | in vitro activity score, IgR-37 (IgR37 cells melanoma; 0.1 μg/ml) | in vitro activity score, IgR-37 (IgR37 cells melanoma; 10 μg/ml) | in vitro activity score, A 204 ([3]; 0.01 μg/ml) | in vitro activity score, A 204 ([3]; 0.1 μg/ml) | in vitro activity score, A 204 ([3]; 10 μg/ml) | in vitro activity score, IgR-37 (IgR37 cells melanoma; 1.0 μg/ml) | in vitro activity score, A 204 ([3]; 1.0 μg/ml) | also measured
COC1=CC(=O)c2c(c(COC(C)=O)c(/C=C/COC(C)=O)n2C)C1=O [E.O. 1, 3-Acetoxymethyl-5-methoxy-1-methyl-2-[1H-indole-4,7-dione]prop-β-en-α-yl acetate] | 2.5 µg/mL | 71% | 24% | 3% | 108% | 37% | 21% | 68% | - | - | - | + | - | - | + | - | - | + |  |  | activity at 1 µg/mL (Renal tumour line): 0%; activity at 0.01 µg/mL ([1]; 0.01 μg/ml): 99%; activity at 0.1 µg/mL ([1]; 0.1 μg/ml): 0%; activity at 1 µg/mL [1]: 0%; direct current polarogram ([2]; DC-polarography): two or more reduction waves; half-wave potential E1.2, wave I ([2]; pH = 8 vs Ag/AgCl): -367 mV; half-wave potential E1.2, wave III ([2]; pH = 8 vs Ag/AgCl): -435 mV; half-wave potential E1.2, wave IV ([2]; pH = 8 vs Ag/AgCl): -775 mV; activity at 0.01 µg/mL (lung-NSCLC tumour line; [5]): 48%; activity at 0.1 µg/mL (lung-NSCLC tumour line; [6]): 4%; activity at 1 µg/mL (lung-NSCLC tumour line; [7]): 0%
COC(=O)OC/C=C/c1c(COC(=O)OC)c2c(n1C)C(=O)C=C(OC)C2=O [E.O. 2, Methyl 5-methoxy-3-methoxycarbonyloxymethyl-1-methyl-2-[1H-indole-4,7 dione]prop-β-en-α-yl carbonate] | 3.7 µg/mL (≈ 9.41 µM) |  |  |  |  |  |  |  | - | - | - | + | - | - | + | - | - | + | - | - | 
CC(=O)OC/C=C/c1c(COC(C)=O)c2c(n1C)C(=O)C=C(N1CC1)C2=O [E.O. 4, 3-Acetoxymethyl-5-aziridino-1-methyl-2-[1H-indole-4,7-dione]prop-β-en-α-yl acetate] |  |  |  |  |  |  |  |  | - | - |  | + | - | - | + | - | - | + | + | + | IC50 (L1210 cells): < 1 µg/mL; activity at 0.001 µg/mL (Colon 2 tumour line): 86%; activity at 0.01 µg/mL (Colon 2 tumour line): 70%; activity at 0.1 µg/mL (Colon 2 tumour line): 11%; activity at 0.001 µg/mL (Colon 1 tumour line): 51%; activity at 0.01 µg/mL (Colon 1 tumour line): 56%; activity at 0.1 µg/mL (Colon 1 tumour line): 56%; activity at 0.001 µg/mL (Renal tumour line): 88%; activity at 0.01 µg/mL (Renal tumour line): 88%; activity at 0.1 µg/mL (Renal tumour line): 41%; activity at 0.001 µg/mL [1]: 95%; activity at 0.01 µg/mL [1]: 46%; activity at 0.1 µg/mL [1]: 0%; activity against the lung cell line (lung-NSCLC tumour line; 0.01 μg/ml): active; activity at 0.001 µg/mL (lung-NSCLC tumour line; [7]): 64%; activity at 0.01 µg/mL (lung-NSCLC tumour line; [7]): 8%; activity at 0.1 µg/mL (lung-NSCLC tumour line; [7]): 0%
Cn1c(/C=C/CO)c(CO)c2c1C(=O)C=C(N1CC1)C2=O [E.O. 9, 5-Aziridino-3-hydroxymethyl-1-methyl-2-[1H-indole-4,7-dione]prop-β-en-α-ol] | 0.8 µg/mL (≈ 2.77 µM) | 136% | 20% | 1% | 51% | 47% | 9% | 8% | - | + | + | + | + | + | + | - | + | + | + | + | activity at 0.01 µg/mL (Renal tumour line; 0.01 μg/ml): 123%; activity at 1 µg/mL (Renal tumour line): 0%; activity at 0.01 µg/mL ([1]; 0.01 μg/ml): 38%; activity at 0.1 µg/mL ([1]; 0.1 μg/ml): 2%; activity at 1 µg/mL [1]: 0%; half-wave potential E1.2, wave I ([2]; pH = 8 vs Ag/AgCl): -370 mV; half-wave potential E1.2, wave II ([2]; pH = 8 vs Ag/AgCl): -785 mV; activity against the lung cell line (lung-NSCLC tumour line; 0.01 μg/ml): active; activity at 0.01 µg/mL (lung-NSCLC tumour line; [5]): 0%; activity at 0.1 µg/mL (lung-NSCLC tumour line; [6]): 0%; activity at 1 µg/mL (lung-NSCLC tumour line; [7]): 0%
